Experimental data reported in ChEMBL document CHEMBL3091367, “Synthesis and evaluation of the apoptosis inducing and CT DNA interaction properties of a series of 4β-carbamoyl 4'-O-demethylepipodophyllotoxins” (Eur J Med Chem, 2013).
Calls of active or inactive are those of the source. No cut-off for these calls is given here.

Legend:
[1] = tested on: HeLa; assay: Cytotoxicity against human HeLa cells after 48 hrs by MTT assay; format: functional, cell-based
[2] = Cytotoxicity against human HCT8 cells after 48 hrs by MTT assay; format: functional, cell-based; conditions: HCT-8, 48 h
[3] = tested on: A549; assay: Cytotoxicity against human A549 cells after 48 hrs by MTT assay; format: functional, cell-based; conditions: A549, 48 h
[4] = tested on: HL-60; assay: Cytotoxicity against human HL60 cells after 48 hrs by cell counting kit-8 assay; format: functional, cell-based; conditions: HL-60, 48 h
[5] = tested on: HeLa; assay: Cell cycle arrest in human HeLa cells assessed as accumulation at S phase at 0.5 uM by propidium iodide staining-based FACS flow cytometric analysis (reference value: 16.3%); format: functional
[6] = tested on: HeLa; assay: Cell cycle arrest in human HeLa cells assessed as accumulation at G1 phase at 10 uM by propidium iodide staining-based FACS flow cytometric analysis (reference value: 54.7%); format: functional
[7] = tested on: HeLa; assay: Cell cycle arrest in human HeLa cells assessed as accumulation at G1 phase at 5 uM by propidium iodide staining-based FACS flow cytometric analysis (reference value: 54.7%); format: functional
[8] = tested on: HeLa; assay: Cell cycle arrest in human HeLa cells assessed as accumulation at G1 phase at 0.5 uM by propidium iodide staining-based FACS flow cytometric analysis (reference value: 54.7%); format: functional
[9] = tested on: HeLa; assay: Cell cycle arrest in human HeLa cells assessed as accumulation at sub-G1 phase at 10 uM by propidium iodide staining-based FACS flow cytometric analysis (reference value: 4.4%); format: functional
[10] = tested on: HeLa; assay: Cell cycle arrest in human HeLa cells assessed as accumulation at sub-G1 phase at 0.5 uM by propidium iodide staining-based FACS flow cytometric analysis (reference value: 4.4%); format: functional
[11] = tested on: HeLa; assay: Cell cycle arrest in human HeLa cells assessed as accumulation at sub-G1 phase at 5 uM by propidium iodide staining-based FACS flow cytometric analysis (reference value: 4.4%); format: functional
[12] = tested on: HeLa; assay: Cell cycle arrest in human HeLa cells assessed as accumulation at G2/M phase at 5 uM after 24 hrs by propidium iodide staining-based FACS flow cytometric analysis (reference value: 22.7%); format: functional
[13] = tested on: HeLa; assay: Cell cycle arrest in human HeLa cells assessed as accumulation at G2/M phase at 5 uM after 12 hrs by propidium iodide staining-based FACS flow cytometric analysis (reference value: 22.7%); format: functional
[14] = tested on: HeLa; assay: Cell cycle arrest in human HeLa cells assessed as accumulation at S phase at 5 uM after 24 hrs by propidium iodide staining-based FACS flow cytometric analysis (reference value: 9.0%); format: functional
[15] = tested on: HeLa; assay: Cell cycle arrest in human HeLa cells assessed as accumulation at S phase at 5 uM after 12 hrs by propidium iodide staining-based FACS flow cytometric analysis (reference value: 9.0%); format: functional
[16] = tested on: HeLa; assay: Cell cycle arrest in human HeLa cells assessed as accumulation at G1 phase at 5 uM after 24 hrs by propidium iodide staining-based FACS flow cytometric analysis (reference value: 57.2%); format: functional
[17] = tested on: HeLa; assay: Cell cycle arrest in human HeLa cells assessed as accumulation at G1 phase at 5 uM after 12 hrs by propidium iodide staining-based FACS flow cytometric analysis (reference value: 57.2%); format: functional
[18] = tested on: HeLa; assay: Cell cycle arrest in human HeLa cells assessed as accumulation at sub-G1 phase at 5 uM after 24 hrs by propidium iodide staining-based FACS flow cytometric analysis (reference value: 1.8%); format: functional
[19] = tested on: HeLa; assay: Cell cycle arrest in human HeLa cells assessed as accumulation at sub-G1 phase at 5 uM after 12 hrs by propidium iodide staining-based FACS flow cytometric analysis (reference value: 1.8%); format: functional
[20] = tested on: HeLa; assay: Induction of apoptosis in human HeLa cells assessed as upregulation of Bax protein expression at 5 uM after 1 to 24 hrs by Western blotting analysis; format: functional, cell-based
[21] = tested on: HeLa; assay: Cell cycle arrest in human HeLa cells assessed as accumulation at sub-G1 phase by propidium iodide staining-based FACS flow cytometric analysis; format: functional
[22] = tested on: DNA; assay: Binding affinity to calf thymus DNA assessed as increase in complex fluorescence using 1 to 6 uM of DNA at 1 uM after 5 mins by fluorescence assay; format: nucleic-acid assay; conditions: Bos taurus
[23] = tested on: DNA; assay: Binding affinity to calf thymus DNA assessed as change in DNA conformation from B-form to C-form at 5 to 40 ug/ml after 24 hrs by circular dichorism spectroscopy; format: nucleic-acid assay; conditions: Bos taurus
[24] = tested on: HeLa; assay: Induction of apoptosis in human HeLa cells assessed as upregulation of caspase-3 protein expression at 5 uM by Western blotting analysis; format: functional, cell-based; conditions: TDE = time-dependent effect
[25] = tested on: HeLa; assay: Induction of apoptosis in human HeLa cells assessed as upregulation of p53 protein expression at 5 uM by Western blotting analysis; format: functional, cell-based; conditions: TDE = time-dependent effect
[26] = tested on: HeLa; assay: Induction of apoptosis in human HeLa cells assessed as upregulation of Bax protein expression at 5 uM by Western blotting analysis; format: functional, cell-based; conditions: TDE = time-dependent effect
[27] = tested on: HeLa; assay: Induction of apoptosis in human HeLa cells assessed as upregulation of caspase-3 protein expression at 5 uM after 1 to 24 hrs by Western blotting analysis; format: functional, cell-based
[28] = tested on: HeLa; assay: Induction of apoptosis in human HeLa cells assessed as upregulation of p53 protein expression at 5 uM after 1 to 24 hrs by Western blotting analysis; format: functional, cell-based
[29] = tested on: HeLa; assay: Cell cycle arrest in human HeLa cells assessed as accumulation at G2/M phase at 10 uM by propidium iodide staining-based FACS flow cytometric analysis (reference value: 15.0%); format: functional
[30] = tested on: HeLa; assay: Cell cycle arrest in human HeLa cells assessed as accumulation at G2/M phase at 5 uM by propidium iodide staining-based FACS flow cytometric analysis (reference value: 15.0%); format: functional
[31] = tested on: HeLa; assay: Cell cycle arrest in human HeLa cells assessed as accumulation at G2/M phase at 0.5 uM by propidium iodide staining-based FACS flow cytometric analysis (reference value: 15.0%); format: functional
[32] = tested on: HeLa; assay: Cell cycle arrest in human HeLa cells assessed as accumulation at S phase at 10 uM by propidium iodide staining-based FACS flow cytometric analysis (reference value: 16.3%); format: functional
[33] = tested on: HeLa; assay: Cell cycle arrest in human HeLa cells assessed as accumulation at S phase at 5 uM by propidium iodide staining-based FACS flow cytometric analysis (reference value: 16.3%); format: functional

Compound: COc1cc([C@@H]2c3cc4c(cc3[C@@H](O[C@@H]3O[C@@H]5CO[C@@H](C)O[C@H]5[C@H](O)[C@H]3O)[C@H]3COC(=O)[C@H]23)OCO4)cc(OC)c1O [ETOPOSIDE]
- IC50 [1]: 2910 nM

Compound: COc1cc([C@@H]2c3cc4c(cc3[C@@H](OC(=O)NC3CCCCC3)[C@H]3COC(=O)[C@H]23)OCO4)cc(OC)c1O
- IC50 [2]: 1240 nM
- IC50 [3]: 26100 nM
- IC50 [1]: 5400 nM
- IC50 [4]: 270 nM

Compound: COc1cc([C@@H]2c3cc4c(cc3[C@@H](OC(=O)NC3CC3)[C@H]3COC(=O)[C@H]23)OCO4)cc(OC)c1O
- IC50 [2]: 80 nM
- IC50 [3]: 18300 nM
- IC50 [1]: 10800 nM
- IC50 [4]: 160 nM

Compound: COc1cc([C@@H]2c3cc4c(cc3[C@@H](OC(=O)NC3CCCC3)[C@H]3COC(=O)[C@H]23)OCO4)cc(OC)c1O
- IC50 [2]: 330 nM
- IC50 [3]: 4540 nM
- IC50 [1]: 3750 nM
- IC50 [4]: 210 nM

Compound: COc1cc([C@@H]2c3cc4c(cc3[C@@H](OC(=O)N[C@@H](C)C(=O)N3CCN(c5ccc([N+](=O)[O-])cc5)CC3)[C@H]3COC(=O)[C@H]23)OCO4)cc(OC)c1O
- IC50 [2]: 710 nM
- IC50 [3]: 19000 nM
- IC50 [1]: > 100000 nM
- IC50 [4]: 130 nM

Compound: COc1cc([C@@H]2c3cc4c(cc3[C@@H](OC(=O)N3CCOCC3)[C@H]3COC(=O)[C@H]23)OCO4)cc(OC)c1O
- IC50 [2]: 150 nM
- IC50 [3]: 8550 nM
- IC50 [1]: 8590 nM
- IC50 [4]: 10 nM

Compound: COc1cc([C@@H]2c3cc4c(cc3[C@@H](OC(=O)N3CCN(C5CCCC5)CC3)[C@H]3COC(=O)[C@H]23)OCO4)cc(OC)c1O
- IC50 [2]: 1620 nM
- IC50 [3]: 3890 nM
- IC50 [1]: 4400 nM
- IC50 [4]: < 10 nM

Compound: COc1cc([C@@H]2c3cc4c(cc3[C@@H](OC(=O)N3CCN(c5ccc(F)cc5)CC3)[C@H]3COC(=O)[C@H]23)OCO4)cc(OC)c1O
- IC50 [2]: 10 nM
- IC50 [3]: 5240 nM
- IC50 [1]: 1580 nM
- IC50 [4]: 330 nM

Compound: COc1cc([C@@H]2c3cc4c(cc3[C@@H](OC(=O)N[C@H](Cc3ccccc3)C(=O)N3CCN(c5ccc([N+](=O)[O-])cc5)CC3)[C@H]3COC(=O)[C@H]23)OCO4)cc(OC)c1O
- IC50 [2]: 70 nM
- IC50 [3]: > 100000 nM
- IC50 [1]: 28600 nM
- IC50 [4]: 40 nM

Compound: COc1cc([C@@H]2c3cc4c(cc3[C@@H](OC(=O)N[C@@H](CCSC)C(=O)N3CCN(c5ccc([N+](=O)[O-])cc5)CC3)[C@H]3COC(=O)[C@H]23)OCO4)cc(OC)c1O
- IC50 [2]: 570 nM
- IC50 [3]: > 100000 nM
- IC50 [1]: 49400 nM
- IC50 [4]: 10 nM

Compound: COc1cc([C@@H]2c3cc4c(cc3[C@@H](OC(=O)N[C@@H](Cc3ccccc3)C(=O)N3CCN(c5ccc([N+](=O)[O-])cc5)CC3)[C@H]3COC(=O)[C@H]23)OCO4)cc(OC)c1O
- IC50 [2]: 10 nM
- IC50 [3]: 9550 nM
- IC50 [1]: 4130 nM
- IC50 [4]: 30 nM

Compound: CCCNC(=O)O[C@@H]1c2cc3c(cc2[C@@H](c2cc(OC)c(O)c(OC)c2)[C@H]2C(=O)OC[C@@H]21)OCO3
- IC50 [2]: 185 nM
- IC50 [3]: 8830 nM
- IC50 [1]: 13200 nM
- IC50 [4]: 90 nM

Compound: COc1cc([C@@H]2c3cc4c(cc3[C@@H](OC(=O)N[C@H](CCSC)C(=O)N3CCN(c5ccc([N+](=O)[O-])cc5)CC3)[C@H]3COC(=O)[C@H]23)OCO4)cc(OC)c1O
- IC50 [2]: 850 nM
- IC50 [3]: > 100000 nM
- IC50 [1]: > 100000 nM
- IC50 [4]: 20 nM

Compound: COc1cc([C@@H]2c3cc4c(cc3[C@@H](OC(=O)N3CCN(c5ccc([N+](=O)[O-])cc5)CC3)[C@H]3COC(=O)[C@H]23)OCO4)cc(OC)c1O
- Activity [5]: 9.8%
- Activity [6]: 26%
- Activity [7]: 33.9%
- Activity [8]: 35.9%
- Activity [9]: 24.7%
- Activity [10]: 21.7%
- Activity [11]: 23%
- Activity [12]: 38.1%
- Activity [13]: 29.9%
- Activity [14]: 10.2%
- Activity [15]: 10.2%
- Activity [16]: 33.3%
- Activity [17]: 43.8%
- Activity [18]: 11.1%
- Activity [19]: 4.1%
- IC50 [2]: < 10 nM
- IC50 [3]: 1670 nM
- IC50 [1]: 74 nM
- IC50 [4]: 170 nM
- Activity [20]: Active
- Activity [21]: Dose-dependent effect
- Activity [22]: Active
- Activity [23]: Active
- Activity [24]: tde
- Activity [25]: tde
- Activity [26]: tde
- Activity [27]: Active
- Activity [28]: Active
- Activity [29]: 29.1%
- Activity [30]: 22.5%
- Activity [31]: 20.5%
- Activity [32]: 13.1%
- Activity [33]: 10.2%

Compound: COc1cc([C@@H]2c3cc4c(cc3[C@@H](OC(=O)N3CCOCC3)[C@H]3COC(=O)[C@H]23)OCO4)cc(OC)c1OC(=O)N1CCOCC1
- IC50 [2]: 130 nM
- IC50 [3]: > 100000 nM
- IC50 [1]: > 100000 nM
- IC50 [4]: < 10 nM

Compound: COc1cc([C@@H]2c3cc4c(cc3[C@@H](OC(=O)N3CCN(C)CC3)[C@H]3COC(=O)[C@H]23)OCO4)cc(OC)c1O
- IC50 [2]: 30 nM
- IC50 [3]: 4180 nM
- IC50 [1]: 20000 nM
- IC50 [4]: 190 nM

Compound: COc1cc([C@@H]2c3cc4c(cc3[C@@H](OC(=O)N3CCN(c5ccc([N+](=O)[O-])cc5)CC3)[C@H]3COC(=O)[C@H]23)OCO4)cc(OC)c1OC(=O)N1CCN(c2ccc([N+](=O)[O-])cc2)CC1
- IC50 [2]: 10 nM
- IC50 [3]: 56900 nM
- IC50 [4]: 350 nM

Compound: COc1cc([C@@H]2c3cc4c(cc3[C@@H](OC(=O)N[C@H](C(=O)N3CCN(c5ccc([N+](=O)[O-])cc5)CC3)C(C)C)[C@H]3COC(=O)[C@H]23)OCO4)cc(OC)c1O
- IC50 [2]: 10 nM
- IC50 [3]: 8320 nM
- IC50 [1]: > 100000 nM
- IC50 [4]: 260 nM
